# System: C57BL/6 mice
# Test: Mouse test: muscle wet weight (body weight ratio) and gastrocnemius histology after 4-week oral administration
# Type: in vivo
# Settings: once a day for 4 weeks, n=7/group
# Protocol: C57BL/6 mice (Charles River, Japan: healthy mice) were used as test animals to evaluate the effect of 4-week continuous ingestion of Bifidobacterium breve FERM BP-11175 on muscle mass increase.
# After receiving the test animals at 9 weeks old, F-2 feed (manufactured by Funabashi Pharm) and tap water were freely ingested. After one week of acclimatization, the test animals were divided into 3 groups (n=7/group): a control group (administered 10 mL/kg body weight of tap water); a Bifidobacterium administration group (administered 10 mL/kg body weight of culture supernatant of Bifidobacterium breve FERM BP-11175 prepared in (1) of test example 1); and a leucine administration group (administered 1.5 g/kg body weight of leucine), and oral administration was continued for each mouse using an oral probe once a day for 4 weeks. After the final administration, the test animals were fasted for 3 hours, followed by treatment under sevoflurane anesthesia, and plantaris and gastrocnemius was removed to measure the wet weight (body weight ratio) of each tissue. For gastrocnemius, the thin-sectioned tissue was stained with HE, and then the tissue was observed under a microscope.
smiles,measurement,value
"CC(C)C[C@H](N)C(=O)O [Leucine, leucine]",Gastrocnemius tissue weight (body weight ratio) [Mean value ± SE],5.417 ± 0.125 mg/g body weight
same,Plantaris tissue weight (body weight ratio) [Mean value ± SE],0.706 ± 0.027 mg/g body weight

# Reference: US20200261516A1, “Composition for Increasing Muscle Mass” (MORINAGA MILK INDUSTRY CO., LTD., priority 2017, published 2020)
